Data: ChEMBL document CHEMBL1156212, “Curcumin derivatives inhibit testicular 17beta-hydroxysteroid dehydrogenase 3” (Bioorg Med Chem Lett, 2010)
Activity calls are given as the source filed them. The calls are words filed in the database; no cut-off is given here.

Key:
[1] = target: T1, 17-beta-hydroxysteroid dehydrogenase type 3 (Rattus norvegicus) (UniProt O54939); assay: Inhibition of 17beta-HSD3 in Sprague-Dawley rat testis microsomes at 100 uM
T1 sequence (whole entry): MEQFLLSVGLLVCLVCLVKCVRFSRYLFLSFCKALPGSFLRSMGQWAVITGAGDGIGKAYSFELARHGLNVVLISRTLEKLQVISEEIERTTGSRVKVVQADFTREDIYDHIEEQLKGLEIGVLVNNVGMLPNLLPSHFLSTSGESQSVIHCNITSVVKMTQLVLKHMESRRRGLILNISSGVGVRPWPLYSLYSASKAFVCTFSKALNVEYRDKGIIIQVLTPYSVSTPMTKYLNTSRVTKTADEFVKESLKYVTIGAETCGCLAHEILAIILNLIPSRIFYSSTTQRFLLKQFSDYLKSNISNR

[2] = target: T1, 17-beta-hydroxysteroid dehydrogenase type 3 (Rattus norvegicus); assay: Inhibition of 17beta-HSD3 in Sprague-Dawley rat laydig cells at 100 uM
[3] = target: T2, 17-beta-hydroxysteroid dehydrogenase type 3 (Homo sapiens) (UniProt P37058); assay: Inhibition of 17beta-HSD3 in human testis microsomes at 100 uM
T2 sequence (whole entry): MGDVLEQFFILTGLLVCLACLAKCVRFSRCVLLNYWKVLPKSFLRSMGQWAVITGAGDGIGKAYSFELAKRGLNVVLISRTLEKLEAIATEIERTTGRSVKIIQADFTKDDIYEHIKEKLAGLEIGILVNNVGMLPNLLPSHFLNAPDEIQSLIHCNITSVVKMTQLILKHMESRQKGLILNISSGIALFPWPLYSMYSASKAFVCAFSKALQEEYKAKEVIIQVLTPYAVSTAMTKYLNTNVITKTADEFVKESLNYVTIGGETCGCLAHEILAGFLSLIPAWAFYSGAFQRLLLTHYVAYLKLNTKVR

[4] = target: T3, 17-beta-hydroxysteroid dehydrogenase type 3 (Rattus norvegicus, UniProt O54939); assay: Inhibition of 17beta-HSD3 in Sprague-Dawley rat testis microsomes
T3 sequence (O54939 whole entry): T1 sequence (whole entry)

[5] = target: T3, 17-beta-hydroxysteroid dehydrogenase type 3; assay: Inhibition of 17beta-HSD3 in Sprague-Dawley rat laydig cells
[6] = target: T4, 17-beta-hydroxysteroid dehydrogenase type 3 (Homo sapiens, UniProt P37058); assay: Inhibition of 17beta-HSD3 in human testis microsomes
T4 sequence (P37058 whole entry): T2 sequence (whole entry)

[7] = Inhibition of LH-stimulated testosterone production in Sprague-Dawley rat leydig cells at 10 uM after 18 hrs by tritium based radio immuno assay relative to control; assay type: functional; settings: read-out: INH
[8] = target: T2, 17-beta-hydroxysteroid dehydrogenase type 3 (Homo sapiens); settings: Testis, Microsomes, 1 to 10 uM
Description: Uncompetitive inhibition of 17beta-HSD3 in human testis microsomes at 1 to 10 uM by Lineweaver-Burke plot analysis

[9] = target: T1, 17-beta-hydroxysteroid dehydrogenase type 3 (Rattus norvegicus); assay: Uncompetitive inhibition of 17beta-HSD3 in Sprague-Dawley rat testis microsomes at 1 to 10 uM by Lineweaver-Burke plot analysis; settings: Microsome
[10] = target: T4, 17-beta-hydroxysteroid dehydrogenase type 3; assay: Inhibition of 17beta-HSD3

| SMILES | inhibition [1] | inhibition [2] | inhibition [3] | also measured |
| --- | --- | --- | --- | --- |
| O=C1/C(=C/c2ccc(F)cc2)CCC/C1=C\c1ccc(F)cc1 | inactive | inactive | inactive |  |
| CN(C)c1ccc(/C=C2\CC/C(=C\c3ccc(N(C)C)cc3)C2=O)cc1 | inactive | inactive | inactive |  |
| O=C(/C=C/c1ccc(F)cc1)/C=C/c1ccc(F)cc1 |  |  | 39% | IC50 [4]: 3.3 µM; IC50 [5]: 0.1 µM |
| COc1cc(/C=C2\CC/C(=C\c3ccc(OC4CCCOC4)c(OC)c3)C2=O)ccc1OC1CCCOC1 (stereo unspecified) | inactive | inactive | inactive |  |
| COc1cc(/C=C2\CCC/C(=C\c3ccc(OC4CCCOC4)c(OC)c3)C2=O)ccc1OC1CCCOC1 (stereo unspecified) | 27% | 26% | inactive |  |
| COc1cc(/C=C2\CC/C(=C\c3ccc(OCCCN(C)C)c(OC)c3)C2=O)ccc1OCCCN(C)C | 32% | 38% | 28% |  |
| O=C1/C(=C/c2ccc(OC3CCCOC3)cc2)CCC/C1=C\c1ccc(OC2CCCOC2)cc1 (stereo unspecified) | 21% | 16% | inactive |  |
| CN(C)c1ccc(/C=C/C(=O)/C=C/c2ccc(N(C)C)cc2)cc1 | 15% | inactive |  | IC50 [6]: 2.4 µM |
| COc1cc(/C=C2\CC/C(=C\c3cc(OC)c(OC)c(OC)c3)C2=O)cc(OC)c1OC | inactive | 11% | inactive |  |
| O=C1/C(=C/c2ccc(O)cc2)CCC/C1=C\c1ccc(O)cc1 | 34% | 13% | 38% |  |
| O=C1C=CC(=O)C(c2ccc(-c3ccccc3)cc2)=C1 |  |  |  | IC50 [6]: 2.7 µM |
| CN(C)c1ccc(/C=C2\CCC/C(=C\c3ccc(N(C)C)cc3)C2=O)cc1 | 10% | 12% | 17% |  |
| O=C1/C(=C/c2cccc(C(F)(F)F)c2F)CC/C1=C\c1cccc(C(F)(F)F)c1F | 23% | inactive | inactive |  |
| O=C1/C(=C/c2ccc(OC3CCCOC3)cc2)CC/C1=C\c1ccc(OC2CCCOC2)cc1 (stereo unspecified) | 13% | inactive | inactive |  |
| O=C1/C(=C/c2ccc(O)cc2)CC/C1=C\c1ccc(O)cc1 | 15% | 18% | 28% |  |
| O=C(/C=C/c1ccc(O)cc1)/C=C/c1ccc(O)cc1 | 33% | 30% | 46% |  |
| CCOc1ccc(/C=C2\CC/C(=C\c3ccc(OCC)cc3)C2=O)cc1 | inactive | 14% | inactive |  |
| COc1cc(/C=C2\CCC/C(=C\c3cc(OC)c(OC)c(OC)c3)C2=O)cc(OC)c1OC |  |  |  | IC50 [4]: 1.8 µM; IC50 [6]: 0.1 µM; IC50 [5]: > 100 µM |
| COc1cc(/C=C/C(=O)CC(=O)/C=C/c2ccc(O)c(OC)c2)ccc1O [CURCUMIN] |  |  |  | IC50 [4]: 2.3 µM; IC50 [6]: 67.3 µM; inhibition at 10 µM [7]: 64%; IC50 [5]: 9 µM; inhibition [8]: Active; inhibition [9]: Active |
| O=C(/C=C/c1ccc(OC2CCCOC2)cc1)/C=C/c1ccc(OC2CCCOC2)cc1 (stereo unspecified) | 29% |  | 22% | IC50 [5]: 1.3 µM |
| COc1cc(/C=C/C(=O)/C=C/c2ccc(OC3CCCOC3)c(OC)c2)ccc1OC1CCCOC1 (stereo unspecified) | 35% | inactive | 20% |  |
| CCOc1ccc(/C=C2\CCC/C(=C\c3ccc(OCC)cc3)C2=O)cc1 | 16% | inactive | 13% |  |
| C[C@]12CC[C@H](OCCc3ccccc3)CC1CC[C@@H]1[C@@H]2CC[C@]2(C)C(=O)CC[C@@H]12 (stereo partly specified) |  |  |  | IC50 [10]: 0.057 µM |
| O=C1/C(=C/c2cccc(Br)c2)CC/C1=C\c1cccc(Br)c1 |  | 30% | 14% | IC50 [4]: 0.7 µM |
| O=C1/C(=C/c2cccc(Br)c2)CCC/C1=C\c1cccc(Br)c1 | 40% | 25% | 15% |  |
| COc1cc(/C=C/C(=O)/C=C/c2cc(OC)c(OC)c(OC)c2)cc(OC)c1OC | inactive | inactive | inactive |  |
| O=C(/C=C/c1cccc(Br)c1)/C=C/c1cccc(Br)c1 |  | 20% |  | IC50 [4]: 8.5 µM; IC50 [6]: 2.7 µM |
| CCOc1ccc(/C=C/C(=O)/C=C/c2ccc(OCC)cc2)cc1 | 16% |  | 16% | IC50 [5]: 0.07 µM |
| O=C1/C(=C/c2ccc(F)cc2)CC/C1=C\c1ccc(F)cc1 | 15% | 14% | 11% |  |
